Source: patent US20230407243A1, “GENETIC PLATFORM TO INVESTIGATE THE FUNCTIONS OF BACTERIAL DRUG EFFLUX PUMPS” (priority 2022, published 2023)

What was measured:
Type in all cases: cell-based, Escherichia coli
E. coli EKO-35 = assay: microbe, parasite or virus in culture
Method in brief: (§1)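 Turbidity (OD600, pre-incubation subtracted) defined growth after 18 h at 37 °C in MHB II. The inoculum was diluted 1/2000 from an OD600 ~1.0 PBS suspension of an overnight LB culture. Compounds were run as duplicate twofold dilutions.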

E. coli ΔtolC = assay: microbe, parasite or virus in culture; conditions: technical duplicate
Method in brief: as §1

[1] = tested on: wild-type E. coli K-12 str. BW25113; assay: microbe, parasite or virus in culture; conditions: technical duplicate
Method in brief: as §1

EKO-35 araC::acrEF = assay: MIC susceptibility profiling, efflux platform
Method in brief: as §1

EKO-35 araC::emrAB = assay: MIC susceptibility profiling, efflux platform
Method in brief: as §1

EKO-35 araC::macAB = assay: MIC susceptibility profiling, efflux platform
Method in brief: as §1

wild-type (WT) K-12-Pore = assay: microbe, parasite or virus in culture; conditions: technical duplicate
Method in brief: (§2)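 Strains carry the fhuA ΔC/Δ4L pore integrated between glmS and pstS under a constitutive promoter, with pore activity checked by vancomycin susceptibility. Overnight LB cultures were adjusted in PBS pH 7.4 to OD600 ~1.0 and diluted 1/2000 into MHB II. 2-fold compound titrations were read by OD600 after 18 h at 37 °C.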

ΔtolC-Pore = assay: microbe, parasite or virus in culture; conditions: technical duplicate
Method in brief: as §2

EKO-35-Pore = assay: MIC susceptibility profiling, porinated strain
Method in brief: as §2

EKO-35 araC::acrB Pore = assay: MIC susceptibility profiling, porinated efflux platform
Method in brief: as §2

[2] = tested on: EKO-35 araC::acrBD408A Pore; assay: as above
Method in brief: as §2

EKO-35 araC::acrD Pore = assay: as above
Method in brief: as §2

EKO-35 araC::acrEF Pore = assay: as above
Method in brief: as §2

EKO-35 araC::emrAB Pore = assay: as above
Method in brief: as §2

EKO-35 araC::emrKY Pore = assay: as above
Method in brief: as §2

EKO-35 araC::macAB Pore = assay: as above
Method in brief: as §2

EKO-35 araC::mdtBC Pore = assay: as above
Method in brief: as §2

EKO-35 araC::mdtEF Pore = assay: as above
Method in brief: as §2

EKO-35 araC::mexCD Pore = assay: as above
Method in brief: as §2

[3] = Table 13A, non-porinated, technical duplicate
[4] = Table 13B, non-porinated, technical duplicate
[5] = Table 14A, porinated, technical duplicate

Nc1ccccc1SCc1nc(-c2ccc(Cl)cc2)no1 [compound 16]
160 µg/mL: Minimum Inhibitory Concentration, EKO-35 araC::emrAB (EKO-35 araC::emrAB; [4]) | Minimum inhibitory concentration (MIC), Pore K-12 (wild-type (WT) K-12-Pore; Table 10, with pore) | Minimum inhibitory concentration, K-12 (WT)-Pore (wild-type (WT) K-12-Pore; Table 14A, porinated) | Minimum inhibitory concentration, EKO-35 araC::acrB Pore (EKO-35 araC::acrB Pore; [5])
1 fold: Fold change of MICs (E. coli EKO-35; EKO-35 compared to EKO-35 (reference)) | Fold change of MICs (EKO-35 araC::macAB; EKO-35 araC::macAB compared to EKO-35) | Fold changes of MICs (EKO-35-Pore; EKO-35-Pore compared to EKO-35-Pore (reference)) | Fold changes of MICs ([2]; EKO-35 araC::acrBD408A Pore compared to EKO-35-Pore) | Fold changes of MICs (EKO-35 araC::acrD Pore; EKO-35 araC::acrD Pore compared to EKO-35-Pore) | Fold changes of MICs (EKO-35 araC::emrKY Pore; EKO-35 araC::emrKY Pore compared to EKO-35-Pore) | Fold changes of MICs (EKO-35 araC::macAB Pore; EKO-35 araC::macAB Pore compared to EKO-35-Pore) | Fold changes of MICs (EKO-35 araC::mdtBC Pore; EKO-35 araC::mdtBC Pore compared to EKO-35-Pore)
80 µg/mL: Minimum inhibitory concentration, EKO-35 araC::acrEF Pore (EKO-35 araC::acrEF Pore; [5]) | Minimum inhibitory concentration (EKO-35 araC::emrAB Pore; EKO-35 araC::emrAB Pore, technical duplicate) | Minimum inhibitory concentration, EKO-35 araC::mdtEF Pore (EKO-35 araC::mdtEF Pore; [5]) | Minimum inhibitory concentration (EKO-35 araC::mexCD Pore; EKO-35 araC::mexCD Pore, technical duplicate)
5 µg/mL: Minimum inhibitory concentration (MIC), Pore ΔtolC (ΔtolC-Pore; Table 10, with pore) | Minimum inhibitory concentration, ΔtolC-Pore (ΔtolC-Pore; Table 14A, porinated) | Minimum inhibitory concentration (MIC), Pore EKO-35 (EKO-35-Pore; Table 10, with pore, technical duplicate) | Minimum inhibitory concentration, EKO-35-Pore (EKO-35-Pore; [5]) | Minimum inhibitory concentration ([2]; EKO-35 araC::acrBD408A Pore, technical duplicate) | Minimum inhibitory concentration, EKO-35 araC::acrD Pore (EKO-35 araC::acrD Pore; [5]) | Minimum inhibitory concentration (EKO-35 araC::macAB Pore; EKO-35 araC::macAB Pore, technical duplicate) | Minimum inhibitory concentration (EKO-35 araC::mdtBC Pore; EKO-35 araC::mdtBC Pore, technical duplicate)
320 µg/mL: Minimum inhibitory concentration (MIC), K-12 ([1]; Table 10, without pore) | Minimum Inhibitory Concentration, K-12 ([1]; Table 13A, non-porinated) | Minimum Inhibitory Concentration, EKO-35 araC::acrEF (EKO-35 araC::acrEF; [3])
susceptible: susceptibility of EKO-35 to the compound (E. coli EKO-35; synthetic efflux substrates of FIG. 12)
10 µg/mL: Minimum inhibitory concentration (MIC), EKO-35 (E. coli EKO-35; Table 10, without pore, technical duplicate) | Minimum Inhibitory Concentration, EKO-35 (E. coli EKO-35; [3]) | Minimum inhibitory concentration (MIC), ΔtolC (E. coli ΔtolC; Table 10, without pore) | Minimum Inhibitory Concentration, ΔtolC (E. coli ΔtolC; Table 13A, non-porinated) | Minimum Inhibitory Concentration, EKO-35 araC::macAB (EKO-35 araC::macAB; [4])
16 fold: Fold change of MICs (EKO-35 araC::emrAB; EKO-35 araC::emrAB compared to EKO-35) | Fold changes of MICs (EKO-35 araC::acrEF Pore; EKO-35 araC::acrEF Pore compared to EKO-35-Pore) | Fold changes of MICs (EKO-35 araC::emrAB Pore; EKO-35 araC::emrAB Pore compared to EKO-35-Pore) | Fold changes of MICs (EKO-35 araC::mdtEF Pore; EKO-35 araC::mdtEF Pore compared to EKO-35-Pore) | Fold changes of MICs (EKO-35 araC::mexCD Pore; EKO-35 araC::mexCD Pore compared to EKO-35-Pore)
32 fold: Fold change of MICs (EKO-35 araC::acrEF; EKO-35 araC::acrEF compared to EKO-35) | Fold changes of MICs (EKO-35 araC::acrB Pore; EKO-35 araC::acr-B Pore compared to EKO-35-Pore)
2.5 µg/mL: Minimum inhibitory concentration (EKO-35 araC::emrKY Pore; EKO-35 araC::emrKY Pore, technical duplicate)
